According to PubChem BioAssay (NCI):
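GI50 marks 50% less growth. At the TGI there is no net growth.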

How the values were obtained:
Assay in all cases: NCI anticancer screen, dose series, 384-well format
MDA-MB-435 melanoma = system: MDA-MB-435 melanoma
786-0 renal = system: 786-0 renal
U251 glioblastoma = system: U251 glioblastoma
HS 578T breast = system: HS 578T breast
LOX IMVI melanoma = system: LOX IMVI melanoma
MOLT-4 leukemia = system: MOLT-4 leukemia
HOP-62 NSCLC = system: HOP-62 NSCLC
SR leukemia = system: SR leukemia
TK-10 renal = system: TK-10 renal
SW-620 colon = system: SW-620 colon
MALME-3M melanoma = system: MALME-3M melanoma
NCI/ADR-RES ovarian = system: NCI/ADR-RES ovarian
SF-539 CNS = system: SF-539 CNS

CN1CCN(c2ccc(-c3cccc(CN4CCOCC4)c3)cc2NC(=O)c2c[nH]c(=O)cc2C(F)(F)F)CC1
GI50 (MDA-MB-435 melanoma): 31.7 µM | TGI (MDA-MB-435 melanoma): > 100 µM | GI50 (786-0 renal): 10.4 µM | TGI (786-0 renal): 34.2 µM | GI50 (U251 glioblastoma): 12.1 µM | TGI (U251 glioblastoma): 30.9 µM | GI50 (HS 578T breast): 12.2 µM | TGI (HS 578T breast): 34.4 µM | GI50 (LOX IMVI melanoma): 9.13 µM | TGI (LOX IMVI melanoma): 23 µM | GI50 (MOLT-4 leukemia): 5.86 µM | TGI (MOLT-4 leukemia): 11.5 µM | GI50 (HOP-62 NSCLC): 21 µM | TGI (HOP-62 NSCLC): > 65.3 µM | GI50 (SR leukemia): 12.2 µM | TGI (SR leukemia): 24.8 µM | GI50 (TK-10 renal): 30.5 µM | TGI (TK-10 renal): > 90.4 µM | GI50 (SW-620 colon): 11.7 µM | TGI (SW-620 colon): > 45.2 µM | GI50 (MALME-3M melanoma): 14.7 µM | TGI (MALME-3M melanoma): 28.1 µM | GI50 (NCI/ADR-RES ovarian): > 58.1 µM | TGI (NCI/ADR-RES ovarian): > 100 µM | GI50 (SF-539 CNS): 12.3 µM | TGI (SF-539 CNS): 28.7 µM

c1ccc2c(NCCCN3CCN(CCCNc4c5ccccc5nc5ccccc45)CC3)c3ccccc3nc2c1
GI50 (MDA-MB-435 melanoma): 1.26 µM | TGI (MDA-MB-435 melanoma): 2.54 µM | GI50 (786-0 renal): 0.204 µM | TGI (786-0 renal): 1.47 µM | GI50 (U251 glioblastoma): 0.223 µM | TGI (U251 glioblastoma): 0.766 µM | GI50 (HS 578T breast): 0.174 µM | TGI (HS 578T breast): 1.17 µM | GI50 (LOX IMVI melanoma): 0.665 µM | TGI (LOX IMVI melanoma): 1.86 µM | GI50 (MOLT-4 leukemia): 0.0232 µM | TGI (MOLT-4 leukemia): 0.0509 µM | GI50 (HOP-62 NSCLC): 0.0964 µM | TGI (HOP-62 NSCLC): 0.463 µM | GI50 (SR leukemia): 0.155 µM | TGI (SR leukemia): 0.328 µM | GI50 (TK-10 renal): 0.605 µM | TGI (TK-10 renal): 3.16 µM | GI50 (SW-620 colon): 0.452 µM | TGI (SW-620 colon): 2.35 µM | GI50 (MALME-3M melanoma): 0.702 µM | TGI (MALME-3M melanoma): 1.88 µM | GI50 (NCI/ADR-RES ovarian): 5.28 µM | TGI (NCI/ADR-RES ovarian): > 100 µM | GI50 (SF-539 CNS): 0.159 µM | TGI (SF-539 CNS): 1.23 µM
